Assays:
Format in all cases: in vivo
[1] = test system: Echinochloa oryzacola Vasing.; experiment: Test Example 2: herbicidal activity, application during weed generation in submerged conditions (symbol A); details: Table 23; application herbicide amount 320 g/ha; grade 0-5 by criteria of Test Example 1
How it was run: (§1)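 Alluvial soil in pots was flooded to a 4 cm water depth and sown with a mix of the three weed species, then grown in a greenhouse at 25° C. to 30° C. At the one- to two-leaf stage, an emulsifiable formulation diluted in water to a set dose was applied to the water surface. Effects were scored visually 3 weeks later.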

wheat = experiment: Test Example 5: effect on crop by foliage application, plastic box (symbol e); details: 320 g/ha, 3 weeks after application
How it was run: (§2)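 Seeds were sown in spots in sterilized diluvial soil held in a plastic box 21 cm × 13 cm × 7 cm deep, covered with about 1.5 cm of soil, and grown in a greenhouse at 25° C. to 30° C.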

Galium spurium = experiment: Test Example 5: herbicidal effect by foliage application, plastic box (symbol Q); details: 320 g/ha, 3 weeks after application
How it was run: (§3)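 Seeds were sown in sterilized diluvial soil, covered with about 1.5 cm of soil and grown 14 days in a greenhouse at 25° C. to 30° C. An emulsifiable formulation diluted in water to a set rate was sprayed over foliage, and injury was scored 3 weeks later.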

Stellaria media = experiment: Test Example 4: herbicidal effect by soil treatment (symbol P); details: application herbicide amount 320 g/ha
How it was run: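 Seeds were sown in sterilized diluvial soil, covered with about 1.5 cm of soil, and the soil surface was sprayed with a water-diluted emulsion of the compound at a predetermined rate. Plants grew in a greenhouse at 25° C. to 30° C.; effects were scored visually 3 weeks after application.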

soybean = experiment: Test Example 5: effect on crop by foliage application, plastic box (symbol d); details: 320 g/ha, 3 weeks after application
How it was run: as §2

Veronica persica = experiment: Test Example 5: herbicidal effect by foliage application, plastic box (symbol R); details: 320 g/ha, 3 weeks after application
How it was run: as §3

rice plant = experiment: Test Example 5: effect on crop by foliage application, plastic box (symbol b); details: 320 g/ha, 3 weeks after application
How it was run: as §2

Amaranthus retroflexus = experiment: Test Example 5: herbicidal effect by foliage application, plastic box (symbol N); details: 320 g/ha, 3 weeks after application
How it was run: as §3

Cyperus difformis = experiment: Test Example 3: herbicidal effect by foliage application, Wagner pot (symbol E); details: application herbicide amount 320 g/ha
How it was run: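 Weeds and rice were sown in alluvial soil under 0.1–0.5 cm of standing water and grown for 14 days in a 25–30 °C greenhouse. An emulsion of the compound, diluted in water to a set dose, was sprayed evenly onto the foliage. Effect was scored against fixed criteria 3 weeks after treatment.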

Scirpus juncoides [2] = experiment: Test Example 1: herbicidal activity, application before weed generation in submerged conditions (symbol B); details: application herbicide amount 320 g/ha
How it was run: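 Ratings (5: ≥90%, near complete withering; 4: 70–<90%; 3: 40–<70%; 2: 20–<40%; 1: 5–<20%; 0: ≤5%) were assigned 3 weeks after the diluted emulsion was applied to the water surface of freshly sown, submerged pots.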

Scirpus juncoides [3] = experiment: Test Example 2: herbicidal activity, application during weed generation in submerged conditions (symbol B); details: Table 23; application herbicide amount 320 g/ha; grade 0-5 by criteria of Test Example 1
How it was run: as §1

corn = experiment: Test Example 4: effect on crop by soil treatment (symbol c); details: application herbicide amount 320 g/ha
How it was run: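 Seeds were sown in spots on sterilized diluvial soil in a plastic box and covered with about 1.5 cm of soil. Plants were then grown in a greenhouse at 25° C. to 30° C.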

Compound | Herbicidal effect grade, A: Echinochloa oryzacola Vasing. [1] | e: wheat, effect on crop grade (wheat) | Q: Galium spurium, herbicidal effect grade (Galium spurium) | P: Stellaria media, herbicidal effect grade (Stellaria media) | d: soybean, effect on crop grade (soybean) | R: Veronica persica, herbicidal effect grade (Veronica persica) | b: directly sowed rice plant, effect on crop grade (rice plant) | N: Amaranthus retroflexus, herbicidal effect grade (Amaranthus retroflexus) | herbicidal effect on E, grade 0-5 (Cyperus difformis) | Herbicidal effect grade, B: Scirpus juncoides (Scirpus juncoides [2]) | Herbicidal effect grade, B: Scirpus juncoides (Scirpus juncoides [3]) | c: corn, effect on crop grade (corn) | e: wheat, effect on crop (criteria of Test Example 1) (wheat) | Q: Galium spurium, herbicidal effect (criteria of Test Example 1) (Galium spurium) | d: soybean, effect on crop (criteria of Test Example 1) (soybean) | R: Veronica persica, herbicidal effect (criteria of Test Example 1) (Veronica persica) | b: directly sowed rice plant, effect on crop (criteria of Test Example 1) (rice plant) | N: Amaranthus retroflexus, herbicidal effect (criteria of Test Example 1) (Amaranthus retroflexus) | Herbicidal effect grade, P: Stellaria media (Stellaria media) | Effect on crop grade, c: corn (corn)
CON=C(C)CC1CC(O)=C(c2c(C)cc(OCc3ccncc3)cc2C)C1=O (mixture of isomers) [6-053] | 3 (Herbicidal ratio of 40% or higher and lower than 70%) | 0 (Herbicidal ratio of 5% or lower (almost no effect)) | 0 (Herbicidal ratio of 5% or lower (almost no effect)) | 0 (Herbicidal ratio of 5% or lower (almost no effect)) | 0 (Herbicidal ratio of 5% or lower (almost no effect)) | 0 (Herbicidal ratio of 5% or lower (almost no effect)) | 3 (Herbicidal ratio of 40% or higher and lower than 70%) | 0 (Herbicidal ratio of 5% or lower (almost no effect)) | 3 (Herbicidal ratio of 40% or higher and lower than 70%) | 2 (Herbicidal ratio of 20% or higher and lower than 40%) | 1 (Herbicidal ratio of 5% or higher and lower than 20%) | 1 (Herbicidal ratio of 5% or higher and lower than 20%) |  |  |  |  |  |  |  | 
CON=C(C)CC1CC(OC(=O)COc2ccccc2)=C(c2c(C)cc(-c3ccc(Cl)cc3)cc2C)C1=O (mixture of isomers) [6-061] | 5 (Herbicidal ratio of 90% or more (almost completely withered)) |  |  | 3 (Herbicidal ratio of 40% or higher and lower than 70%) |  |  |  |  | 5 (Herbicidal ratio of 90% or more (almost completely withered)) | 1 (Herbicidal ratio of 5% or higher and lower than 20%) | 4 (Herbicidal ratio of 70% or higher and lower than 90%) | 0 (Herbicidal ratio of 5% or lower (almost no effect)) | 5 (Herbicidal ratio of 90% or more (almost completely withered)) | 3 (Herbicidal ratio of 40% or higher and lower than 70%) | 3 (Herbicidal ratio of 40% or higher and lower than 70%) | 4 (Herbicidal ratio of 70% or higher and lower than 90%) | 5 (Herbicidal ratio of 90% or more (almost completely withered)) | 1 (Herbicidal ratio of 5% or higher and lower than 20%) |  | 
CON=C(C)CC1CC(O)=C(c2c(C)cc(-c3ccc(Cl)cc3F)cc2C)C1=O (stereo not drawn) [6-084] | 4 (Herbicidal ratio of 70% or higher and lower than 90%) |  |  | 3 (Herbicidal ratio of 40% or higher and lower than 70%) |  |  |  |  | 5 (Herbicidal ratio of 90% or more (almost completely withered)) | 3 (Herbicidal ratio of 40% or higher and lower than 70%) | 3 (Herbicidal ratio of 40% or higher and lower than 70%) | 0 (Herbicidal ratio of 5% or lower (almost no effect)) | 4 (Herbicidal ratio of 70% or higher and lower than 90%) | 3 (Herbicidal ratio of 40% or higher and lower than 70%) | 5 (Herbicidal ratio of 90% or more (almost completely withered)) | 4 (Herbicidal ratio of 70% or higher and lower than 90%) | 5 (Herbicidal ratio of 90% or more (almost completely withered)) | 3 (Herbicidal ratio of 40% or higher and lower than 70%) |  | 
CON=C(C)CC1CC(OC(=O)N2CCOCC2)=C(c2c(C)cc(-c3ccc(F)cc3)cc2C)C1=O (mixture of isomers) [6-059] | 5 (Herbicidal ratio of 90% or more (almost completely withered)) |  |  | 0 (Herbicidal ratio of 5% or lower (almost no effect)) |  |  |  |  | 5 (Herbicidal ratio of 90% or more (almost completely withered)) | 5 (Herbicidal ratio of 90% or more (almost completely withered)) | 4 (Herbicidal ratio of 70% or higher and lower than 90%) | 0 (Herbicidal ratio of 5% or lower (almost no effect)) | 5 (Herbicidal ratio of 90% or more (almost completely withered)) | 4 (Herbicidal ratio of 70% or higher and lower than 90%) | 0 (Herbicidal ratio of 5% or lower (almost no effect)) | 5 (Herbicidal ratio of 90% or more (almost completely withered)) | 5 (Herbicidal ratio of 90% or more (almost completely withered)) | 5 (Herbicidal ratio of 90% or more (almost completely withered)) |  | 
CCc1cc(Br)cc(C)c1C1=C(O)CC(CC(C)=O)C1=O (stereo not drawn) [7-003] | 2 (Herbicidal ratio of 20% or higher and lower than 40%) |  |  |  |  |  |  |  | 0 (Herbicidal ratio of 5% or lower (almost no effect)) | 0 (Herbicidal ratio of 5% or lower (almost no effect)) | 0 (Herbicidal ratio of 5% or lower (almost no effect)) |  | 0 (Herbicidal ratio of 5% or lower (almost no effect)) | 0 (Herbicidal ratio of 5% or lower (almost no effect)) | 2 (Herbicidal ratio of 20% or higher and lower than 40%) | 0 (Herbicidal ratio of 5% or lower (almost no effect)) | 5 (Herbicidal ratio of 90% or more (almost completely withered)) | 0 (Herbicidal ratio of 5% or lower (almost no effect)) | 0 (Herbicidal ratio of 5% or lower (almost no effect)) | 0 (Herbicidal ratio of 5% or lower (almost no effect))
CON=C(C)CC1CC(O)=C(c2c(C)cc(-n3cccn3)cc2C)C1=O (stereo not drawn) [6-073] | 4 (Herbicidal ratio of 70% or higher and lower than 90%) |  |  | 0 (Herbicidal ratio of 5% or lower (almost no effect)) |  |  |  |  | 5 (Herbicidal ratio of 90% or more (almost completely withered)) | 1 (Herbicidal ratio of 5% or higher and lower than 20%) | 2 (Herbicidal ratio of 20% or higher and lower than 40%) | 3 (Herbicidal ratio of 40% or higher and lower than 70%) | 3 (Herbicidal ratio of 40% or higher and lower than 70%) | 3 (Herbicidal ratio of 40% or higher and lower than 70%) | 0 (Herbicidal ratio of 5% or lower (almost no effect)) | 3 (Herbicidal ratio of 40% or higher and lower than 70%) | 5 (Herbicidal ratio of 90% or more (almost completely withered)) | 0 (Herbicidal ratio of 5% or lower (almost no effect)) |  | 
